Measurements reported in ChEMBL document CHEMBL2074043, “Investigation of fractions present in the stem bark of Annickia kummeriae on their P-glycoprotein inhibitory pump activity” (Phytother Res, 2004).

Molecular target: ATP-dependent translocase ABCB1 (Homo sapiens, UniProt P08183)
Assay: TP_TRANSPORTER: increase in intracellular accumulation of rhodamine 6G in […] cell
Format: functional, cell-based

ATP-dependent translocase ABCB1, sequence (P08183 whole entry): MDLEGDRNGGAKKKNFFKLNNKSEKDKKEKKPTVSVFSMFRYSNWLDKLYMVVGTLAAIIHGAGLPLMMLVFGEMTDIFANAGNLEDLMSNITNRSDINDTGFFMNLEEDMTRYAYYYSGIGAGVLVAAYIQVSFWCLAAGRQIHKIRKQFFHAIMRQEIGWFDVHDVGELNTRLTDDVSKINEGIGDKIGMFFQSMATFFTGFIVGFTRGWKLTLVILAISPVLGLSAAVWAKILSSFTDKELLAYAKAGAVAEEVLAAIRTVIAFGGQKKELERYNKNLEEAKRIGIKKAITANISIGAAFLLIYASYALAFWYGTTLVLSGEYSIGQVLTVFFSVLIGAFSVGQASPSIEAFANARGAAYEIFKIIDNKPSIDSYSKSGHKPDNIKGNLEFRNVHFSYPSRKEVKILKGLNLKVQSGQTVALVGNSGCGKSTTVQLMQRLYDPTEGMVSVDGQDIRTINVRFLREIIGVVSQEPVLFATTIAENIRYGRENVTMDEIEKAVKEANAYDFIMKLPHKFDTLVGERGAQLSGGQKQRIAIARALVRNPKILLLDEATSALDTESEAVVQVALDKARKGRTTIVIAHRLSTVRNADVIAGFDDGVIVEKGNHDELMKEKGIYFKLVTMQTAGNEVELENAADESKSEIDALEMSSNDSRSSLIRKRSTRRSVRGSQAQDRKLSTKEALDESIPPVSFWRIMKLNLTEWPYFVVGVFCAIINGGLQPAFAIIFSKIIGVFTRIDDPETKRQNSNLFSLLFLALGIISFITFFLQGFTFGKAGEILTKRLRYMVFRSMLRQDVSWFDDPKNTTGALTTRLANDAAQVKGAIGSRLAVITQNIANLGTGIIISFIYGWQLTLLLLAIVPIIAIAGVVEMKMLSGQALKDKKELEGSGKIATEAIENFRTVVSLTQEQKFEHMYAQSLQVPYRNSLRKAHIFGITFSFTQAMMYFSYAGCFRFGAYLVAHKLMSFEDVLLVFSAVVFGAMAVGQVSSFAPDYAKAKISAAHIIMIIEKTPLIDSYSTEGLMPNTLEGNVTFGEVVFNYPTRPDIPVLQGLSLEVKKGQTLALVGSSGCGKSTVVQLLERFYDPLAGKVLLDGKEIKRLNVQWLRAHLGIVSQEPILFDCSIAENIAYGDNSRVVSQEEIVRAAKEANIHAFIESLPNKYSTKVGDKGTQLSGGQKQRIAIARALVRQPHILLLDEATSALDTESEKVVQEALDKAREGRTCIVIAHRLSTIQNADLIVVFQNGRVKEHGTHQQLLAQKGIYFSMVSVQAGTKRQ

Substance: STEM BARK OF ANNICKIA KUMMERIAE EXTRACT
- Activity: inhibitor [+]
